Patent US8129547B2, “Anticoagulation of human blood ex vivo” (priority 2006, dated 2012)

What was measured:
[1] = target: T1, Factor XIa (Homo sapiens, UniProt P03951); assay: Determination of Ki values, chromogenic substrate, Dixon evaluation: Factor XIa; assay type: biochemical; conditions: 25° C., tris buffer pH 8.0, substrate H-D-Lys(Cbo)-Pro-Arg-pNA
T1 construct: purchased Haemochrom Diagnostica GmbH (Essen, D)
Excerpt: (§1) The inhibitors used here are the commercially available exemplary inhibitors Pefabloc tPA/Xa (2,7-bis(4-amidinobenzylidene)-cyclopeptanone-(1), Pentapharm Ltd. Basel, Switzerland), CJ-FXa (benzylsulphonyl-D-arginyl-glycyl-4-amidinobenzylamide, Haemochrom GmbH, Essen, Germany) and CJ-PK (benzylsulphonyl-D-seryl-carbobenzoxylsyl-4-amidinobenzylamide, Haemochrom GmbH, Essen, Germany). Research samples were available of DX-9065a ((+)-(2S)-2-[4-[[3S)-1-acetimidoyl-3-pyrrodinyl]oxy]phenyl]-3-[7-amidino-2-naphthyl]propanic acid, Daiichi Pharmaceutical Company Ltd., Tokyo, Japan), and Otamixaban (2-(R)-(3-carbamimidoylbenyzyl)-3-(R)-[4-(1-oxypyridin-4-yl)benzoylamino]-butyric acid-methylester, Sanofi-Aventis GmbH, Frankfurt, Germany), both of which are undergoing clinical tests. In order to examine the inhibitory action of these exemplarily used inhibitors on the blood coagulation factors plasma-kallikrein, VIIa, Xa, XIa and XIIa, the Ki values of the respective enzyme-inhibitor complexes were determined.
(§2) The enzymes were produced by Haemochrom Diagnostica GmbH (Essen, D) and were dissolved in 0.154 mol/l NaCl. The substrates (Pentapharm AG, Basel, CH) were dissolved in H2O and the inhibitor was dissolved in the above-mentioned tris buffer. The following substrates were used for the individual enzymes:
(§3) 200 μl of inhibitor solution were mixed with 25 μl of substrate for the determination and the reaction was started by the addition of 50 μl of enzyme. After a reaction time of 3-5 mins. 25 μl of acetic acid (50%) were added and the extinction was measured at 405 nm with a microplate reader (iEMS Reader MF 12401, Labsystems, Helsinki, Finland). The evaluation was carried out graphically according to Dixon (Biochem. J., 55, 170, 1953).
(§4) The enzymes were produced by Haemochrom Diagnostica GmbH (Essen, D), and only thrombin was manufactured in our own laboratory according to Walsmann (Pharmazie 23, 401-402, 1968). All the enzymes were dissolved in 0.154 mol/l NaCl. The substrates (Pentapharm AG, Basel, CH) were dissolved in H2O and the inhibitor was dissolved in the above-mentioned tris buffer. The following substrates were used for the individual enzymes:
as §3, with “1401,” for “12401,”

[2] = target: T2, Factor XIIa (Homo sapiens, UniProt P00748); assay: Determination of Ki values, chromogenic substrate, Dixon evaluation: Factor XIIa; assay type: biochemical; conditions: 25° C., tris buffer pH 8.0, substrate H-D-HHT-Gly-Arg-pNA
T2 construct: purchased Haemochrom Diagnostica GmbH (Essen, D)
T2 sequence (P00748 373-615 limits assumed): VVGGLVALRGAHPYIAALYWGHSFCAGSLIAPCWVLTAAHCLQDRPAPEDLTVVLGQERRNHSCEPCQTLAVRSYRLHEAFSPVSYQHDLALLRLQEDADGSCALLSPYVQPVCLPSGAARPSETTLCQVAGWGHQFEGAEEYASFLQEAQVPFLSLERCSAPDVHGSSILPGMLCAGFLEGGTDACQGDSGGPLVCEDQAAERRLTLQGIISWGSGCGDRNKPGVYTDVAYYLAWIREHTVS
Excerpt: as §1, §2, §3, §4
as §3, with “1401,” for “12401,”

[3] = system: human vein blood; assay: Storage of human vein blood after anticoagulation with inhibitor (F1+2 immunoassay); conditions: 25° C.
Experimental: In the sense of the invention anticoagulation means that the re-formation of thrombin is inhibited in the sampled blood. According to the invention thrombin re-formation is inhibited when no more than 1 nM of thrombin is re-formed in the sampled blood. As described above, the activation of prothrombin to thrombin represents an essential step in the blood coagulation cascade. In this case the prothrombin fragment 1+2 (F1+2) is released in equivalent quantities. It is therefore possible to quantify the thrombin actually formed by determining the fragment produced, thus enabling the prothrombin fragment F1+2 to be used as an indirect marker of an activation of prothrombin to thrombin. The concentration of the prothrombin fragment F1+2 formed may be determined immunologically, for example, with commercial enzyme immunoassays (for example Enzygnost F1+2 micro, Dade Behring GmbH, Marburg).
According to the invention anticoagulation therefore means that no more than 1 nM of prothrombin fragment F1+2 is newly formed in the blood after its sampling. […] Without suitable treatment of the blood to prevent coagulation there is an increase in the concentration of the prothrombin fragment F1+2 in this example to well over 1.3 nM, within a few minutes, due to the plasmatic coagulation, i.e. the blood coagulates.
In this experiment it was determined how long human vein blood can be stored without the formation of thrombin or activation of thrombocytes.
For this purpose blood (9 parts) sampled from a patient was mixed with inhibitor solution (0.05 mM, 0.5 mM or 5 mM in physiological NaCl solution; 1 part). Some of the blood was stored at 25° C., the remainder in the refrigerator at 4° C. The quantity of thrombin formed was determined immunologically during storage based on the formation of the prothrombin fragment F1+2 (Enzygnost F1+2 micro, Dade Behring GmbH, Marburg). […] In this case it is irrelevant whether the blood samples were kept at room temperature (approx. 25° C.) or at 4° C.
For this purpose blood (9 parts) sampled from a patient was mixed with inhibitor solution (0.05 mM, 0.5 mM or 5 mM in physiological NaCl solution; 1 part) and stored at room temperature (about 22±2° C.). The quantity of thrombin formed was determined immunologically during storage based on the formation of the prothrombin fragment F1+2 (Enzygnost F1+2 micro, Dade Behring GmbH, Marburg). It was shown that BAPA′ is capable of keeping anticoagulated blood uncoagulated at a concentration in the blood of 500 μM or 50 μM for more than 48 hours (Table 4). At a concentration of 5 μM BAPA′ prevents coagulation for more than 8 hours.

T1 sequence (P03951 388-625 limits assumed): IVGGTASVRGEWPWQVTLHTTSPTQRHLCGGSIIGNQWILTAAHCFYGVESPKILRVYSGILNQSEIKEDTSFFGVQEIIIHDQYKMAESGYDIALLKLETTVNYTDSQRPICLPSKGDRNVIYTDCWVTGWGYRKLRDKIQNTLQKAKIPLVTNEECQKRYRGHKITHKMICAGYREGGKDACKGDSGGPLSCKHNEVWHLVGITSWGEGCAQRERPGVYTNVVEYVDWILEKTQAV
T1 sequence (P03951 19-387 partner limits assumed): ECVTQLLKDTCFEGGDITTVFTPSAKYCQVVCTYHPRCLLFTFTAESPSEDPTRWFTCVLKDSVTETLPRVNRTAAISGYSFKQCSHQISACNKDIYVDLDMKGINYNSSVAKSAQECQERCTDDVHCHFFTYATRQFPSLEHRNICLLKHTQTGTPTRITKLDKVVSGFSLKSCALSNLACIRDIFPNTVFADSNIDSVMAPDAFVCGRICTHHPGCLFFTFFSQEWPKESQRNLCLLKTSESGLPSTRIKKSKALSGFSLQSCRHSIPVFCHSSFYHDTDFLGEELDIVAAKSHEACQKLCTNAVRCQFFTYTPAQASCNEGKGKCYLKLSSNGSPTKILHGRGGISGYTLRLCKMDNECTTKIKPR

Work on `COC(=O)[C@H](Cc1cccc(C(=N)N)c1)[C@@H](C)NC(=O)c1ccc(-c2cc[n+]([O-])cc2)cc1` (mixture of isomers) [Otamixaban, 2-(R)-(3-carbamimidoylbenyzyl)-3-(R)-[4-(1-oxypyridin-4-yl)benzoylamino]-butyric acid-methylester] yielded a Ki [1] of 23 µM, a Ki [2] greater than 1000 µM and an Anticoagulation time ([3]; concentration in the blood 5 μM) of 12 to 24 h.
With `N=C(N)c1ccc(C=C2CCCCC(=Cc3ccc(C(=N)N)cc3)C2=O)cc1` [Pefabloc tPA/Xa, 2,7-bis(4-amidinobenzylidene)-cycloheptanone-(1)] the Ki [1] was 42 µM, the Ki [2] was 0.36 µM and the Anticoagulation time ([3]; concentration in the blood 500 μM) was 7 to 10 h.
